Experimental data as given in ChEMBL document CHEMBL5154864, “Design, synthesis and biological evaluation of novel nitric oxide donors with antioxidative activity” (Eur J Med Chem, 2022).
Calls of active or inactive are those of the source. The rule behind the calls is not given here.

Experiments:
HUVEC [1] = experiment: Cytotoxicity against HUVEC cells assessed as reduction in cell viability at 5 uM in absence of TBHP by CCK8 assay; assay type: toxicity, cell-based; settings: human
HUVEC [2] = experiment: Effect on intracellular NO production in HUVEC cells assessed as increase in NO level at 5 uM incubated for 24 hrs by inverted microscopic analysis; assay type: functional, cell-based; settings: Homo sapiens
HUVEC [3] = experiment: Cytoprotective activity against TBHP induced oxidative stress in human HUVEC cells assessed as increase in cell viability at 5 uM by CCK8 assay; assay type: functional, cell-based
Thoracic aorta = experiment: Vasodilation activity in C57BL/6 mouse thoracic aorta assessed as relaxation of phenylephrine-induced contractions at 5 to 50 uM; assay type: functional, tissue-based; settings: dose 5-50 µM
HUVEC [4] = experiment: Induction of oxidative stress in HUVEC cells assessed as increase in intracellular ROS level at 5 uM incubated for 24 hrs by DCHF staining based inverted microscopic analysis; assay type: functional, cell-based; settings: Homo sapiens
Mus musculus [5] = experiment: Antihypertensive activity against C57BL/6 mouse model of Ang II-induced hypertension assessed as reduction in thoracic arterial wall thickness at 100 mg/kg/day, ip measured after 4 weeks; assay type: functional, organism-based
Mus musculus [6] = experiment: Antihypertensive activity against C57BL/6 mouse model of Ang II-induced hypertension assessed as reduction in vascular ROS level at 100 mg/kg/day, ip measured after 4 weeks; assay type: functional, organism-based
Mus musculus [7] = experiment: Antihypertensive activity against C57BL/6 mouse model of Ang II-induced hypertension assessed as reduction in diastolic blood pressure at 100 mg/kg/day, ip measured after 4 weeks; assay type: functional, organism-based; design: scale not given: the % may be the effect or the level left
Mus musculus [8] = experiment: Reversal of Ang II infusion-induced endothelial dysfunction in C57BL/6 mouse model assessed as relaxation of ACh-stimulated vasodilation at 100 mg/kg/day, ip measured after 4 weeks; assay type: functional, organism-based
Mus musculus [9] = experiment: Antihypertensive activity against C57BL/6 mouse model of Ang II-induced hypertension assessed as reduction in systolic blood pressure at 100 mg/kg/day, ip measured after 4 weeks; assay type: functional, organism-based; design: scale not given: the % may be the effect or the level left
Mus musculus [10] = experiment: Reversal of Ang II infusion-induced smooth muscle dysfunction in C57BL/6 mouse model assessed as relaxation of SNP-stimulated vasodilation at 100 mg/kg/day, ip measured after 4 weeks; assay type: functional, organism-based

CC1(C)N(O)C(c2ccc(C(=O)O)cc2)=[N+]([O-])C1(C)C
Activity (HUVEC [1]): Non-Toxic
Activity (HUVEC [2]): Active

CC1(C)CC(O)CC(C)(C)N1[O]
Activity (HUVEC [3]): Active
Activity (HUVEC [2]): Active

O=[N+]([O-])O[C@@H]1CO[C@H]2[C@@H]1OC[C@@H]2O
Activity (HUVEC [2]): Active
Activity (Thoracic aorta): Active
Activity (HUVEC [4]): Active

2-(2'-bromo-5'-hydroxylphenyl)-4,4,5,5-tetramethylimidazoline-1-oxyl-3-oxide
Activity (HUVEC [2]): Active

2-(2'-bromo-6'-hydroxylphenyl)-4,4,5,5-tetramethylimidazoline-1-oxyl-3-oxide
Activity (HUVEC [2]): Active

2-(2'-hydroxylphenyl)-4,4,5,5-tetramethyl-imidazoline-1-oxyl-3-oxide
Activity (HUVEC [2]): Active

2-(2-hydroxynaphthalen-1-yl)-4,4,5,5-tetramethylimidazoline-1-oxyl-3-oxide
Activity (HUVEC [2]): Active

2-(3'-bromo-4'-hydroxylphenyl)-4,4,5,5-tetramethylimidazoline-1-oxyl-3-oxide
Activity (HUVEC [2]): Active

2-(4-hydroxy-3-methoxyphenyl)-4,4,5,5-tetramethylimidazoline-1-oxyl-3-oxide
Activity (HUVEC [3]): Active
Activity (HUVEC [2]): Active

(3S,6R)-6-(nitrooxy)hexahydrofuro[3,2-b]furan-3-yl 2-(2-(4,5-dihydro-4,4,5,5-tetramethyl-3-oxido-1H-imidazole-3-ium-1-oxyl-2-yl)phenoxy)acetate
Activity (HUVEC [3]): Active
Activity (HUVEC [2]): Active

(3S,6R)-6-(nitrooxy)hexahydrofuro[3,2-b]furan-3-yl 2-(2-bromo-4-(4,5-dihydro-4,4,5,5-tetramethyl-3-oxido-1H-imidazole-3-ium-1-oxyl-2-yl)phenoxy)acetate
Activity (HUVEC [3]): Active
Activity (HUVEC [2]): Active

(3S,6R)-6-(nitrooxy)hexahydrofuro[3,2-b]furan-3-yl 2-(4-bromo-3-(4,5-dihydro-4,4,5,5-tetramethyl-3-oxido-1H-imidazole-3-ium-1-oxyl-2-yl)phenoxy)acetate
Activity (HUVEC [3]): Active
Activity (HUVEC [2]): Active
Activity (Thoracic aorta): Active

(3S,6R)-6-(nitrooxy)hexahydrofuro[3,2-b]furan-3-yl 3-(4,5-dihydro-4,4,5,5-tetramethyl-3-oxido-1H-imidazole-3-ium-1-oxyl-2-yl)benzoate
Activity (HUVEC [2]): Active
Activity (HUVEC [4]): Active

(3S,6R)-6-(nitrooxy)hexahydrofuro[3,2-b]furan-3-yl 4-(4,5-dihydro-4,4,5,5-tetramethyl-3-oxido-1H-imidazole-3-ium-1-oxyl-2-yl)benzoate
Activity (HUVEC [2]): Active
Activity (HUVEC [4]): Active

(3S,6R)-6-(nitrooxy)hexahydrofuro[3,2-b]furan-3-yl (4-(4,5-dihydro-4,4,5,5-tetramethyl-3-oxido-1H-imidazole-3-ium-1-oxyl-2-yl)naphthalen-2-yl)benzoyl)-D-prolinate
Activity (HUVEC [3]): Active
Activity (Mus musculus [5]): Active
Activity (Mus musculus [6]): Active
Activity (HUVEC [2]): Active
Activity (Thoracic aorta): Active
Activity (Mus musculus [7]): 14.3%
Activity (Mus musculus [8]): Active
Activity (Mus musculus [9]): 14.8%
Activity (Mus musculus [10]): Active

(3S,6R)-6-(nitrooxy)hexahydrofuro[3,2-b]furan-3-yl (4-(4,5-dihydro-4,4,5,5-tetramethyl-3-oxido-1H-imidazole-3-ium-1-oxyl-2-yl)naphthalen-2-yl)benzoyl)-L-prolinate
Activity (HUVEC [3]): Active
Activity (HUVEC [2]): Active
Activity (HUVEC [4]): Active
